Test results as given in ChEMBL document CHEMBL4152208, “Synthesis and structure-activity relationships of quinolinone and quinoline-based P2X7 receptor antagonists and their anti-sphere formation activities in glioblastoma cells” (Eur J Med Chem, 2018).
Calls of active or inactive are those of the source. No cut-off for these calls is given here.

What was measured:
P2X purinoceptor 7 = molecular target: T1, P2X purinoceptor 7 (Homo sapiens, UniProt Q99572); test: Antagonist activity at human P2X7 receptor expressed in HEK293 cells assessed as inhibition of BzATP-induced EtBr uptake after 2 hrs by fluorescence assay relative to control; format: cell-based
T1 sequence (Q99572 whole entry): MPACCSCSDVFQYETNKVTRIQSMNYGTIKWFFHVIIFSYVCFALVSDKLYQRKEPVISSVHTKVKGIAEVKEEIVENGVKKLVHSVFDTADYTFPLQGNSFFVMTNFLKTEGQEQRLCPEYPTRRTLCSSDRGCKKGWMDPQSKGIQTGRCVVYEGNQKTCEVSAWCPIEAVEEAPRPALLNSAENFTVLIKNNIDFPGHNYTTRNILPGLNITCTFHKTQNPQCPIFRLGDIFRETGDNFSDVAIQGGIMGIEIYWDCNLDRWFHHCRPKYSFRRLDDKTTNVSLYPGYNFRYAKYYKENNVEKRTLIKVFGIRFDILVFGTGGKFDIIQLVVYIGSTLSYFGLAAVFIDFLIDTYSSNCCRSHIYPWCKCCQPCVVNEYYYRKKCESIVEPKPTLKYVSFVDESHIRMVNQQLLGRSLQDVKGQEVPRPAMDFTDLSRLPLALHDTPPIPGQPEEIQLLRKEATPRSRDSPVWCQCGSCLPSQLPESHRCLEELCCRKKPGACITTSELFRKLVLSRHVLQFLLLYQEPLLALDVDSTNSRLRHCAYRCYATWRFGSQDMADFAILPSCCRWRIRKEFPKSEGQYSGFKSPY

[1] = molecular target: T2, P2X purinoceptor 2 (Homo sapiens) (UniProt Q9UBL9); test: Antagonist activity at human P2X2 receptor expressed in 1321N1 cells assessed as inhibition of ATP-induced calcium flux at 1 uM measured for 30 secs at 0.4 secs intervals by Flou-4-AM dye based fluorescence assay relative to control; format: cell-based
T2 sequence (whole entry): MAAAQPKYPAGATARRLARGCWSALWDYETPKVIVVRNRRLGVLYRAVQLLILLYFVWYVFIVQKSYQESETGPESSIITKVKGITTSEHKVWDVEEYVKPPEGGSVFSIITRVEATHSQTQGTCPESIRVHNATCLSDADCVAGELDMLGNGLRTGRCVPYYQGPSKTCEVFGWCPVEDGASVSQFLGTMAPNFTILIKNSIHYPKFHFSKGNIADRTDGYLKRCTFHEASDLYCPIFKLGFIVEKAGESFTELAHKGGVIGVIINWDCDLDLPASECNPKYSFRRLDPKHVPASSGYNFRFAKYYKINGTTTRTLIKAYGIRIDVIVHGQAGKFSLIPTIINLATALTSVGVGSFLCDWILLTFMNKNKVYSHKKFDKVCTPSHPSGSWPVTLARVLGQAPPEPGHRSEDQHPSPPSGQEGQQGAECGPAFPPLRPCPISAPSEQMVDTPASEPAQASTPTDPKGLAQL

Homo sapiens [2] = organism: Homo sapiens; test: Antiproliferative activity against human TS15-88 cells at 50 uM after 24 hrs by MTS assay; format: functional, cell-based
Homo sapiens [3] = organism: Homo sapiens; test: Antiproliferative activity against human TS15-88 cells at 50 uM after 72 hrs by MTS assay; format: functional, cell-based
[4] = Antiproliferative activity against human TS15-88 cells after 24 to 72 hrs by MTS assay; format: functional, cell-based
[5] = Inhibition of neurosphere formation in human TS15-88 cells assessed as decrease in sphere size at 50 uM after 5 days by microscopic analysis relative to control; format: functional; details: 120 h
Homo sapiens [6] = organism: Homo sapiens; test: Effect on SOX2 mRNA expression in human TS15-88 cells after 72 hrs by qRT-PCR analysis; format: functional, cell-based
[7] = Metabolic stability in human liver microsomes assessed as parent compound remaining at 1 uM up to 30 mins in presence of NADPH by LC-MS/MS analysis; format: ADME, microsome; details: read-out: Stability
[8] = Metabolic stability in mouse liver microsomes assessed as parent compound remaining at 1 uM up to 30 mins in presence of NADPH by LC-MS/MS analysis; format: ADME, microsome; details: read-out: Stability

## O=C(CC12CC3CC(CC(C3)C1)C2)Nc1cccc2nc(Cl)ccc12
P2X purinoceptor 7
  IC50: 0.004 µM
[1]
  inhibition: 7%
Homo sapiens [2]
  Activity: Active
Homo sapiens [3]
  Activity: Active
[4]
  IC50: 40 µM
[5]
  inhibition at 50 µM: > 50%
Homo sapiens [6]
  Activity: inactive
[7]
  remaining at 0.5 h, 1 µM: 0.04%
[8]
  remaining at 0.5 h, 1 µM: 0.1%
